According to US4374284A, “Antiulcer, antiinflammatory, and antiallergic agent comprising as the main ingredient olean-12-ene-3β, 30-diol which is devoid of side effects of glycyrrhetinic acid and a new process for preparation of olean-12-ene-3β, 30-diol” (Minophagen Pharmaceutical Company, priority 1980, dated 1983):
Entries after “also recorded” stand apart in the source; their conditions may differ.

Assays:
[1] = target: T1, Δ^4 -5α-reductase for aldosterone in rat liver (Rattus norvegicus, UniProt P24008); assay: inhibitory action on Δ^4-5α-reductase for aldosterone; type: biochemical
T1 construct: The pellet was appropriately diluted with a solution of 0.25 M sucrose-1 mM EDTA to use as a 5α-reductase solution; from tissue; host or cells: rat liver, 105,000 g pellet
T1 sequence (P24008 1-259): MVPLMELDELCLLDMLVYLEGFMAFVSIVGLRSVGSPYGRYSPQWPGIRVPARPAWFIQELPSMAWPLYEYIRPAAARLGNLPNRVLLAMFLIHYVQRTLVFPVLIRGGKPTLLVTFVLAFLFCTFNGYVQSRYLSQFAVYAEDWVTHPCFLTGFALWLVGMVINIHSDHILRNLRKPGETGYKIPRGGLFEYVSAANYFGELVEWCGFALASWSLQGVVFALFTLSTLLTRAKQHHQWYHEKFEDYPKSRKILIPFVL
Experimental: (§1) In vitro experimental results regarding effects of glycyrrhetinic acid (II) and its modified compounds (III), (IV), and (I) on Δ^4 -5α and 5β-reductase for aldosterone in rat liver will be shown below.
(§2) Assay for activity of Δ^4 -5α and 5β-reductase
(§3) (1) Preparation of enzyme solutions
(§4) Rat livers were perfused with saline and excised to prepare a 25% or 50% homogenate with a solution of 0.25 M sucrose and 1 mM EDTA. The homogenate was spun at 10,000 g for 20 minutes to separate supernatant, which was centrifuged again at 105,000 g to obtain Δ^4 -5β-reductase as the supernatant. The pellet was appropriately diluted with a solution of 0.25 M sucrose-1 mM EDTA to use as a 5α-reductase solution.
(§5) (2) Conditions for incubation and assay
(§6) 1 Aldosterone . . . 0.173 μM/0.05 ml ethanol solution
(§7) 2 Glycyrrhetinic acid or its modified compounds . . . 0.173 μM/0.05 ml ethanol solution Control . . . 0.05 ml ethanol solution
(§8) 5α-reductase solution 0.1 ml
(§9) 5β-reductase solution 0.1 ml or 0.2 ml
(§10) 5 Phosphate buffer (0.1 M, pH 7.2) 1 ml
(§11) The components 1 , 2 , 3 , 4 , 5 , and 6 mentioned above were mixed to bring the total volume up to 2.5 ml. The mixture was incubated at 37° C. for 20 minutes. Before the incubation, however, 1 ml aliquot was removed from 2.5 ml of the mixture mentioned above and extracted with 5 ml of methylene dichloride. After the incubation, the remaining 1.5 ml was extracted with 5 ml of methylene dichloride. The optical density of the two methylene dichloride solutions prepared before and after the incubation was measured by a spectrophotometer (Hitachi) at 240 mμ. Inhibition % of Δ^4 -5α and 5β-reductase activity was calculated from the difference in the optical density.

[2] = target: T2, Δ^4 -5β-reductase for aldosterone in rat liver (Rattus norvegicus, UniProt P31210); assay: inhibitory action on Δ^4-5β-reductase for aldosterone; type: biochemical; conditions: summary in words, liver reductase
T2 construct: centrifuged again at 105,000 g to obtain Δ^4 -5β-reductase as the supernatant; from tissue; host or cells: rat liver, 105,000 g supernatant (cytosol)
T2 sequence (P31210 1-326): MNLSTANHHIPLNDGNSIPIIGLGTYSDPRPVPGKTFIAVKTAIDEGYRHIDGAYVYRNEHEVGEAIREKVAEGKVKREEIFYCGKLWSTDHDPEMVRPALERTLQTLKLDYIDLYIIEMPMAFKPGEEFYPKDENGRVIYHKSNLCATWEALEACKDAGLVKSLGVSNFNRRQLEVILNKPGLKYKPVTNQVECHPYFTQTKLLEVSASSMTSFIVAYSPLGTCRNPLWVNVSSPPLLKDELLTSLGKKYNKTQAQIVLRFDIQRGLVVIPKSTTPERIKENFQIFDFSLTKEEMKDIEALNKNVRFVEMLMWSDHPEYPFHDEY
Experimental: as §1, §2, §3, §4, §5, §6, §7, §8, §9, §10, §11

[3] = test system: Δ^4 -5β-reductase for aldosterone in rat liver; assay: as above; type: biochemical; conditions: conclusion from reductase experiments
Experimental: as §1, §2, §3, §4, §5, §6, §7, §8, §9, §10, §11

stress-induced ulcer = assay: mice experiments on stress-induced ulcer (restraint plus water immersion); type: in vivo, male ddY mice; conditions: for ulcer index: 200 mg/kg p.o.
Experimental: (a) Mice Experiments on stress-induced ulcer Experimental procedures:
Male ddY mice weighing about 20 g were made to fast for 18 hours. Water was given freely. Compounds to be tested were suspended in Tween 80 to prepare an aqueous suspension and administered orally. Immediately thereafter, the mice were subjected to restraint plus water immersion stress (25° C.) for 6 hours. Thereafter, the stomach was excised and fixed by formalin. The degree of ulcer was shown as a total of the length. The control group was given only the solvent.

aspirin-induced ulcer = assay: rat experiment on aspirin-induced ulcer, oral (experiment b); type: in vivo, male Wister rats
Experimental: (b) Experimental procedures:
Male Wister rats weighing 120-140 g were made to fast for 24 hours, and compounds to be tested were administered orally. After 5 hours, the rats were killed by a blow. The stomach was excised and observed for the presence of ulcer.
The size of ulcer was measured by ulcer index (ulcer length×width mm^2).

[4] = test system: ulcers induced by acetic acid; assay: experiments with rats on ulcers induced by acetic acid (chronic gastric ulcers); type: in vivo; conditions: for ulcer value (major axis × minor axis): p.o., 14 days
Experimental: (c) Experiments with rats on ulcers induced by acetic acid
Chronic gastric ulcers were induced by penetrating 100% acetic acid serosally into gastric wall for 60 sec. using a small cup (6 mm in diameter, 5 mm in height).
From the next day, compounds to be tested were administered orally twice a day (morning and evening) for 14 days. Autopsies were carried out 15 days after the administrations.

[5] = test system: writhing induced by acetic acid; assay: effect on writhing induced by acetic acid (analgesic action); type: in vivo, male ddY mice; conditions: for number of writhing: counted for 10 minutes, control 24.9 ± 1.6, ** p < 0.01
Experimental: (b) Effect on writhing induced by acetic acid (analgesic action)
The present compound olean-12-ene-3β, 30-diol (I) was administered orally to male ddY mice weighing 25-27 g. After 30 minutes, saline containing 0.7% acetic acid was administered intraperitoneally. The number of writhings of the mice was counted for 10 minutes from, 10 min. of the administration. Aspirin was used as the reference.

Question: `CC1(C)[C@@H](O)CC[C@]2(C)[C@H]3CC=C4[C@@H]5C[C@@](C)(CO)CC[C@]5(C)CC[C@@]4(C)[C@]3(C)CC[C@@H]12` [I, olean-12-ene-3β, 30-diol] was tested. Which inhibition at 0.173 µM ([1]; pH 7.2, read-out: 5α-reductase (inhibition %)) did it give?
Answer: -7.1%

Question: What about the “effect upon Δ^4 -5α-5β-reductase (in words), 5α” value ([1]; summary in words, liver reductase) of the same compound?
Answer: no inhibitory activity

Question: And the “effect upon Δ^4 -5α-5β-reductase (in words), 5β” value [2]?
Answer: no inhibitory activity

Question: What about the “aldosterone-like action (in words)” value [3] of the same compound?
Answer: entirely devoid of aldosterone-like action

Question: What about the “inhibitory effect on stress-induced ulcer (in words)” value (stress-induced ulcer; 200 mg/kg) of the same compound?
Answer: showed a stronger inhibitory effect than glycyrrhetinic acid (II)

Question: What about the ulcer index (stress-induced ulcer; 1st experiment, control 5.63 ± 0.55) of the same compound?
Answer: 2.94 ± 0.81

Question: And the ulcer index (stress-induced ulcer; 2nd experiment, control 4.13 ± 0.8)?
Answer: 2.19 ± 0.6

Question: What about the ulcer index (stress-induced ulcer; 3rd experiment, control 6.00 ± 0.87) of the same compound?
Answer: 3.88 ± 0.79

Question: And the ulcer index (stress-induced ulcer; 4th experiment, control 4.20 ± 0.70)?
Answer: 1.89 ± 0.53

Question: And the “antiulcer effect compared with glycyrrhetinic acid (in words)” value (stress-induced ulcer; all antiulcer experiments (stress, aspirin, acetic acid))?
Answer: shows superior effects to glycyrrhetinic acid in all the experiments

Question: And the “ulcer index (ulcer length×width)” value (aspirin-induced ulcer; 200 mg/kg p.o., after 5 hours, control 0)?
Answer: 0 mm^2

Question: What about the “effect on ulcer, experiment (b) (in words)” value (aspirin-induced ulcer; rat, in vivo) of the same compound?
Answer: did not produce ulcer and inhibited the development of ulcer induced by aspirin

Question: And the “ulcer value (major axis × minor axis)” value ([4]; Experiment 1, 200 mg/kg (half dose twice/day), control 12.0 ± 2.3)?
Answer: 10.1 ± 3.4

Question: And the “ulcer value (major axis × minor axis)” value ([4]; Experiment 1, 400 mg/kg (half dose twice/day), control 12.0 ± 2.3)?
Answer: 7.5 ± 0.7

Question: And the “ulcer value (major axis × minor axis)” value ([4]; Experiment 2, 200 mg/kg (half dose twice/day), control 8.9 ± 1.7)?
Answer: 6.7 ± 2.2

Question: What about the “ulcer value (major axis × minor axis)” value ([4]; Experiment 2, 400 mg/kg (half dose twice/day), control 8.9 ± 1.7) of the same compound?
Answer: 5.2 ± 1.2

Question: And the “ulcer value (major axis × minor axis)” value ([4]; Total, 200 mg/kg (half dose twice/day), control 10.4 ± 1.4)?
Answer: 8.4 ± 2.0

Question: What about the “ulcer value (major axis × minor axis)” value ([4]; Total, 400 mg/kg (half dose twice/day), control 10.4 ± 1.4, * p < 0.05) of the same compound?
Answer: 6.2 ± 0.8

Question: What about the “inhibitory effect on acetic acid ulcer (in words)” value ([4]; dose of 200 mg) of the same compound?
Answer: showed an inhibitory effect to some extent

Question: And the healing rate ([4]; dose of 400 mg)?
Answer: more than 40%

Question: What about the “inhibitory effect on acetic acid ulcer (in words)” value ([4]; dose of 400 mg) of the same compound?
Answer: clearly showed inhibitory effects

Question: And the number of writhing ([5]; 100 mg/kg p.o.)?
Answer: 15.5 ± 2.8

Question: What about the number of writhing ([5]; 200 mg/kg p.o.) of the same compound?
Answer: 11.1 ± 1.6

Question: And the number of writhing ([5]; 400 mg/kg p.o.)?
Answer: 8.0 ± 1.7

Question: What about the “effect on writhing (in words)” value ([5]; increasing doses) of the same compound?
Answer: significantly decrease the number of writhing; also recorded: a little stronger than that of (II), but not so perfect as aspirin
